In this assay the target is Vascular endothelial growth factor receptor 2 (Homo sapiens, UniProt P35968). In words: Inhibitory concentration against human Vascular endothelial growth factor receptor 2.

Structures are written as SMILES.

Sequence of Vascular endothelial growth factor receptor 2 (P35968 whole entry): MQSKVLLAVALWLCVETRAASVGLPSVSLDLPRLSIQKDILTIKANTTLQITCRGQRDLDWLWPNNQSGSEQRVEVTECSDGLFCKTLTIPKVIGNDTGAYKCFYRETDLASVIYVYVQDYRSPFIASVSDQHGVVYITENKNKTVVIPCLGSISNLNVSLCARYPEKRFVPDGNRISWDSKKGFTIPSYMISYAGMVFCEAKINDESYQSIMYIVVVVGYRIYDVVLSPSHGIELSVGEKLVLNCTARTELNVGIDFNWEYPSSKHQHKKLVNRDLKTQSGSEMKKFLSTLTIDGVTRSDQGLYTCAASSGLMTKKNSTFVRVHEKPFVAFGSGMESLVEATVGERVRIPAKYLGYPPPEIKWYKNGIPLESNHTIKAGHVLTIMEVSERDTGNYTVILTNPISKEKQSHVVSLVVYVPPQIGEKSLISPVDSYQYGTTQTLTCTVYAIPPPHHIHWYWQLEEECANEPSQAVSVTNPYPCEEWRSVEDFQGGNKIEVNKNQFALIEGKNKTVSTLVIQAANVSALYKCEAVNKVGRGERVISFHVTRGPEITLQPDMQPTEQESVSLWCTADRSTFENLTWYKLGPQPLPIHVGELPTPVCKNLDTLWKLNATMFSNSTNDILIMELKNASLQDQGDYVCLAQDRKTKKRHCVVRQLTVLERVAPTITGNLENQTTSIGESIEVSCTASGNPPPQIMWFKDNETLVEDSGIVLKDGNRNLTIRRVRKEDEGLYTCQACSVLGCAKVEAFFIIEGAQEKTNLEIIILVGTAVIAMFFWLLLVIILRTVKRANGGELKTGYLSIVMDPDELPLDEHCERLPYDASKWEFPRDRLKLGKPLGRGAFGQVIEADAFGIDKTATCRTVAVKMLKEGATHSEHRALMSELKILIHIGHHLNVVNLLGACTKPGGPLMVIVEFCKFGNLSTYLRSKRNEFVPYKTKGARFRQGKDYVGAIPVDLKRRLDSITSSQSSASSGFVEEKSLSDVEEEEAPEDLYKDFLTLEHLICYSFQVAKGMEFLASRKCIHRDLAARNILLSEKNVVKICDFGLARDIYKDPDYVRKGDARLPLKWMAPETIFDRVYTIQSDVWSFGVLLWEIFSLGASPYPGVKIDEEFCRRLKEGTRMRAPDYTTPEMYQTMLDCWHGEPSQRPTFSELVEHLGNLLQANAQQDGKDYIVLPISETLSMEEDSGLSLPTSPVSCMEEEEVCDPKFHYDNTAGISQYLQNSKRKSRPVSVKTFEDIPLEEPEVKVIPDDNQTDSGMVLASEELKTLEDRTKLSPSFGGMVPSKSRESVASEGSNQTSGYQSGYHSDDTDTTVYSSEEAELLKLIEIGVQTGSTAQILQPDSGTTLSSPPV

In general, IC50 refers to the concentration needed to halve the response being measured. A higher IC50 goes with lower potency. In turn, `C/C(=C\C=C\CC(C)C(CC(=O)O)O[C@H]1O[C@@H](CO)[C@H](O)[C@H](O)[C@@H]1O)C(=O)O` (stereo partly specified) showed an IC50 of 5 µM.

The values above are taken from ChEMBL document CHEMBL1143483, “A new antitumor compound from the plant Oryctanthus sp. as a VEGF receptor binding inhibitor” (Bioorg Med Chem Lett, 2005).
